Results published in patent publication US11376228B2 (Genifarm Laboratories Inc, priority 2018, dated 2022).
pIC50: −log10 of the molar value.

Legend:
Assay type in all cases: cell-based
[1] = tested on: human prostate cancer cells PC3; assay: MTT assay, proliferation of human prostate cancer cells PC3; settings: for pIC50: Homo sapiens, PC3, MTT, 48 h, 0-32 μM, read-out: IC50 on the proliferation of human prostate cancer cells PC3; for inhibitory effects on human prostate cancer cells PC3 (in words): PC3, summary of Table 4; for effect compared with control gossypol I-A9, PC3: PC3, versus gossypol I-A9
[2] = tested on: human gastric cancer cells MKN45; assay: MTT assay, proliferation of human gastric cancer cells MKN45; settings: for pIC50: Homo sapiens, MKN-45, MKN45, MTT, 48 h, 0-60 μM, read-out: IC50 on the proliferation of human gastric cancer cells MKN45; for inhibitory effects on human gastric cancer cells MKN45 (in words): MKN45, summary of Table 1; for effect compared with control gossypol I-A9, MKN45: MKN45, versus gossypol I-A9
Experimental: (§1) The original culture medium for human gastric cancer cells MKN45 was removed, and human gastric cancer cells MKN45 were rinsed with 2 mL of phosphate buffer saline (PBS), digested with 0.5 mL of pancreatic enzyme for 3 min. 2 mL of culture medium was added to the cells and the mixture was transferred to a centrifuge tube. The mixture was centrifuged (200 g) for 5 min. The supernatant was removed. 2 mL of culture medium was sprayed five times to the remaining solution. 0.5 mL of cell suspension was transferred to an Eppendorf (EP) tube and the cells were counted. The cells were cultured on a 96-well plate, each well having 2000 cells, 3 wells for each compound. The numbers of the required cells and wells and the amount of culture medium were calculated. The cells were diluted by the culture medium. 100 μL culture medium was added to each well and were evenly dispersed, each well containing 2000 cells. The cells were transferred to the wells using a pipette, and cultured in an incubator.
(§2) (2) Adding Compounds to Culture Medium
(§3) The original culture medium was discarded, and the mother liquor of each compound was diluted to final concentrations of 0, 5, 15, 30, 45 and 60 μM, respectively. Each diluent was uniformized. To each head of a multichannel pipette, 100 μL of the diluent was introduced. Three heads were employed. The diluents were added to 3 marked wells (the cells were undamaged) of a tilted 96-well plate, respectively. Different concentrations of diluents were added to three different marked wells and evenly mixed by alternately sucking and blowing with the multichannel pipette 3 times. The 96-well plate was shaken slightly twice, and cultured in a CO2 incubator.
(§4) The cells were cultured in different compounds for 48 h and were then detected. Specifically, a clean bench was turned on for 15 min, and phosphate buffer saline (PBS) was pre-heated in a warm water bath for 15 min. MTT was taken out of a refrigerator at −20 degrees, protected from light and thawed (MTT stock solution was 5 mg/mL). MTT and a culture medium were mixed evenly in a V-shaped groove to yield a mixture comprising 500 μg/mL MTT and a culture medium (a volume ratio thereof being 1:10). 100 μL of the prepared MTT mixture was added to each well of the 96-well plate using the multichannel pipette, and then incubated at 37° C. for an appropriate time (1 h), thereby reducing the MTT to formazan (purple crystals formed in the cells under a microscope, which were different in medicated cells and unmedicated cells). The upper liquid was removed with a white pipette tip attached to a vacuum pump. For each concentration of the compounds, 3 pipette tips were employed. After the incubation, the MTT mixture was discarded, and then 100 μL of DMSO was added to each well using the multichannel pipette. The 96-well plate was shaken in a shaker for 10 min (until the purple crystals were dissolved in the cells under the microscope).
The absorbance value of the cells was measured at a wavelength of 550 nm with a microplate reader. The survival rate of the cells treated with different concentrations of compounds was calculated to make a scatter plot. The IC50 results of each compound on the proliferation of human gastric cancer cells MKN45 were shown in Table 1, where Gossypol I-A9 is a control sample.

[3] = tested on: human lung cancer cells A549; assay: MTT assay, proliferation of human lung cancer cells A549; settings: for inhibitory effects on human lung cancer cells A549 (in words): A549, summary of Table 3; for effect compared with control gossypol I-A9, A549: A549, versus gossypol I-A9; for pIC50: Homo sapiens, A549, MTT, 48 h, 0-80 μM, read-out: IC50 on the proliferation of human lung cancer cells A5499
Experimental: as §1, with “lung” for “gastric”, “A549” for “MKN45”
as §2
as §3, with “10, 20,” for “15,”, “60” for “45”, “80” for “60”
as §4
The absorbance value of the resulting solution was detected at a wavelength of 550 nm with a microplate reader. The survival rate of cells treated with different concentrations of drugs was calculated in accordance with the requirements to make a scatter plot. The IC50 results of each compound on the proliferation of human lung cancer cells A549 were shown in Table 3, where Gossypol I-A9 is a control sample.

pIC50 [1]	SMILES	inhibitory effects on human prostate cancer cells PC3 (in words) [1]	effect compared with control gossypol I-A9, PC3 [1]	also measured
4.65	Cc1c(O)c(O)c(C=O)c(COCc2ccccc2)c1-c1ccsc1 [Compound I-48]	significant inhibitory effects		
5.54	CC(C)c1c(O)c(O)c(C=O)c2c1C(c1ccccc1)CC2 (centres unmarked) [Compound I-50, 5,6-dihydroxy-7-isopropyl-1-phenyl-2,3-dihydro-1H-indene-4-carbaldehyde]	significant inhibitory effects	superior than the gossypol I-A9	pIC50 [2]: 4.91; inhibitory effects on human gastric cancer cells MKN45 (in words) [2]: significant inhibitory effects; effect compared with control gossypol I-A9, MKN45 [2]: better than the control gossypol I-A9
5.28	COc1cc(OC)c(Cc2cc(C(C)C)c(O)c(O)c2C=O)c(OC)c1 [Compound I-51]	significant inhibitory effects	superior than the gossypol I-A9	
5.18	CC(C)c1cc(COCc2ccccc2)c(C=O)c(O)c1O [Compound I-53]	significant inhibitory effects	superior than the gossypol I-A9	
5.69	CC(C)c1c(O)c(O)c(C=O)c(COCc2ccccc2)c1-c1ccccc1 [Compound I-55]	significant inhibitory effects	superior than the gossypol I-A9	
5.46	COc1cc(OC)c(Cc2c(C=O)c(O)c(O)c(C)c2-c2ccco2)c(OC)c1 [I-A6, 3-(furan-2-yl)-5,6-dihydroxy-4-methyl-2-(2,4,6-trimethoxybenzyl) benzaldehyde]	significant inhibitory effects	superior than the gossypol I-A9	
5.63	Cc1c(O)c(O)c(C=O)c(COCc2ccccc2)c1Br [I-A8, 2-((benzyloxy)methyl)-3-bromo-5,6-dihydroxy-4-methylbenzaldehyde]	significant inhibitory effects	superior than the gossypol I-A9	

More lines, now with the values behind:

SMILES	pIC50 [1]	inhibitory effects on human prostate cancer cells PC3 (in words) [1]	effect compared with control gossypol I-A9, PC3 [1]	also measured
Cc1c(O)c(O)c(C=O)c2c1C(c1ccc(C(F)(F)F)cc1)CC2 (centres unmarked) [Compound I-5]	5.15	significant inhibitory effects	superior than the gossypol I-A9	
Cc1cc(COCc2ccccc2)c(C=O)c(O)c1O [Compound I-21, 6-((benzyloxy)methyl)-2,3-dihydroxy-4-methylbenzaldehyde]	5.09	significant inhibitory effects	superior than the gossypol I-A9	
Cc1c(O)c(O)c(C=O)c(CC=C(c2ccccc2)c2ccccc2)c1-c1ccccc1 [Compound I-24]	5.14	significant inhibitory effects	superior than the gossypol I-A9	
Cc1c(O)c(O)c(C=O)c(COCc2ccccc2)c1-c1ccccc1 [Compound I-25]	5.08	significant inhibitory effects	superior than the gossypol I-A9	
Cc1c(O)c(O)c(C=O)c(COCc2ccccc2)c1-c1ccc(F)cc1 [Compound I-26]	5.00	significant inhibitory effects		pIC50 [2]: 4.78; inhibitory effects on human gastric cancer cells MKN45 (in words) [2]: significant inhibitory effects
Cc1c(O)c(O)c(C=O)c(COCc2ccccc2)c1-c1ccccc1C#N [Compound I-28]				inhibitory effects on human lung cancer cells A549 (in words) [3]: inhibitory effects; effect compared with control gossypol I-A9, A549 [3]: slightly inferior to that of the Gossypol I-A9; pIC50 [3]: 4.17
CCc1cc(COCc2ccccc2)c(C=O)c(O)c1O [Compound I-31]	5.14	significant inhibitory effects	superior than the gossypol I-A9	
Cc1c(C)c(COCc2ccccc2)c(C=O)c(O)c1O [Compound I-39]				pIC50 [2]: 5.18; inhibitory effects on human gastric cancer cells MKN45 (in words) [2]: significant inhibitory effects; effect compared with control gossypol I-A9, MKN45 [2]: better than the control gossypol I-A9
COc1cc(OC)c(Cc2c(C=O)c(O)c(O)c(C)c2-c2ccc(Br)cc2)c(OC)c1 [Compound I-41]	5.75	significant inhibitory effects	superior than the gossypol I-A9	
COc1cc(OC)c(Cc2c(C=O)c(O)c(O)c(C)c2-c2ccc([N+](=O)[O-])cc2)c(OC)c1 [Compound I-42, 4,5-dihydroxy-6-methyl-4′-nitro-2-(2,4,6-trimethoxybenzyl)-(1,1′-biphenyl)-3-carbaldehyde]	5.55	significant inhibitory effects	superior than the gossypol I-A9	
CCc1c(O)c(O)c(C=O)c(Cc2c(OC)cc(OC)cc2OC)c1-c1ccccc1 [Compound I-44]	5.54	significant inhibitory effects	superior than the gossypol I-A9	
Cc1c(O)c(O)c(C=O)c(COCc2ccccc2)c1-c1ccc(C(C)(C)C)cc1 [Compound I-46]	5.19	significant inhibitory effects	superior than the gossypol I-A9	
Cc1c(O)c(O)c(C=O)c(COCc2ccccc2)c1-c1cccc2ccccc12 [Compound I-47]	5.09	significant inhibitory effects	superior than the gossypol I-A9	
Cc1cc(COCc2ccccc2)c(CO)c(O)c1O [Compound I-96]				inhibitory effects on human gastric cancer cells MKN45 (in words) [2]: significant inhibitory effects
COC(=O)c1c(COCc2ccc(OC)cc2)cc(C)c(OC)c1OC [Compound I-100]		significant inhibitory effects		
Cc1cc(CSCc2ccccc2)c(C=O)c(O)c1O [I-A4]				inhibitory effects on human lung cancer cells A549 (in words) [3]: inhibitory effects; effect compared with control gossypol I-A9, A549 [3]: slightly inferior to that of the Gossypol I-A9; pIC50 [3]: 4.23
